Source: publication PMC3441706 (PLoS ONE, 2012)

Experiments:
Assay type in all cases: cell-based, human
[1] = test system: HCT116 p53+/+ or p53−/− cells; assay: Determination of p53 status dependency; details: HCT116 p53+/+ vs p53−/−, 72 hours, viable cell numbers
Description: (§1) The isogenic colon carcinoma cells lines HCT116 p53+/+ or p53−/− and RKO p53+/+ or p53−/− were cultured in 12-well plates. After a recovery period of 24 hours, NVX-412 or Nutlin-3 was added in fresh growth medium at the indicated concentrations. […] After 24 or 72 hours cell numbers were determined with a Beckman Coulter ViCell XR.

[2] = test system: RKO p53+/+ or p53−/− cells; assay: Determination of p53 status dependency; details: RKO p53+/+ vs p53−/−, 72 hours, viable cell numbers
Description: as §1

[3] = test system: p-p53 (Ser15); assay: Immunofluorescence staining of p-p53 (Ser15) in HCT116 cells; details: HCT116, 24 hours, 1 µM (positive control)
Description: (§2) HCT116 and HeLa cells were seeded on glass cover slips in 6-well plates. 24 hours after plating, HCT116 cells were incubated with 0.15, 0.5 and 1 µM NVX-412 and 1 µM CPT for 24 hours for staining of p-p53. For investigating γH2AX, HeLa cells were incubated with 0.21, 0.5 and 1 µM NVX-412 and 1 µM CPT for 3 or 24 hours. Additionally, cells were allowed to recover for 24 hours in normal growth medium after 24 hours of incubation with NVX-412 or CPT (wash-out experiment). After the respective treatments, cells were washed and fixed with 4% methanol-free formaldehyde (Polysciences Inc. Warrington, PA, USA) for 15 minutes at room temperature and then permeabilized with 0.2% Triton X-100/PBS for 2 minutes at room temperature. After blocking with goat serum (5%) in 1% BSA/0.3% Triton X-100/PBS, the respective primary antibody was added and cells were incubated at 4°C overnight. Antibodies used were: mouse p-p53 (Ser15) (Cell Signaling Technology, Danvers, MA, USA) at 1∶100 dilution and mouse p-H2AX (Ser139) (Millipore, Billerica, MA, USA) at 1∶1000 dilution in 1% BSA/PBS, respectively. Cells were then washed 3 times for 10 minutes with 0.25% BSA/0.1% Triton X-100/PBS and incubated with the Alexa Fluor 488 conjugated secondary anti-mouse antibody (1∶1000 in 0.25% BSA/0.1% Triton X-100/PBS) for 1 hour at room temperature in the dark. Cells were washed 3 times for 10 minutes with 0.05% Tween-20/PBS containing Hoechst 33342 (Sigma Aldrich, Vienna, AUT) and mounted with mounting medium (Fluoprep, bioMérieux, Marcy l'Etoile, FRA). Fluorescence was immediately recorded on a Zeiss LSM700 laser scanning microscope.

[4] = test system: p-p53 (Ser15); assay: Western Blot for p-p53 (Ser15) in HCT116 cells; details: HCT116, 24 and 48 hours, 1 µM (control)
Description: Treated cells were directly lysed in NP40 cell lysis buffer (Invitrogen, Grand Island, NY, USA) containing protease and phosphatase inhibitors. Protein concentrations were measured colorimetrically (DC Protein Assay, Bio-Rad Laboratories, Hercules, CA, USA). Proteins were separated by SDS - polyacrylamide gel electrophoresis and blotted onto nitrocellulose membranes (Whatman™, Vienna, AUT). Equal loading was checked by Ponceau S (SERVA, Heidelberg, GER) staining. Bound antigen was visualized with the enhanced chemiluminescence detection system (Roche Diagnostics, Indianapolis, IN, USA). These procedures were performed according to the manufacturer’s protocols. Antibodies specific for the following proteins of interest were used: pChk1 (Ser296), p-p53 (Ser15), β-Tubulin and GAPDH were obtained from Cell Signaling Technology (Danvers, MA, USA) at 1∶1000 dilution. Secondary antibodies were peroxidase-tagged goat anti-rabbit or anti-mouse IgGs (Cell Signaling Technology) (1∶2000).

[5] = test system: HCT116 cells; assay: Flow cytometric cell cycle analysis; details: HCT116, 24 hours
Description: (§3) HT-29, HeLa and HCT116 cells were plated in 6-well plates. […] CPT was used at 50 nM and 1 µM. To analyze the cell cycle distribution, cells were collected after 24 hours of incubation and washed with PBS. Cells were fixed in 70% ethanol for at least 2 hours. For analysis, cells were transferred into PBS, incubated with RNAse A (0.04 µg/ml final concentration) for 30 minutes at 37°C, treated with […] propidium iodide for 30 min at 4°C and then analyzed by flow cytometry using BD FACScan (Becton, Dickinson and Company, Franklin Lakes, NJ, USA). The resulting DNA histograms were quantified using ModFit LT (Verity Software House, Topsham, ME, USA).

[6] = test system: HT-29 cells; assay: Flow cytometric cell cycle analysis; details: HT-29, 24 hours
Description: as §3

[7] = test system: HeLa cells; assay: Flow cytometric cell cycle analysis; details: 24 hours
Description: as §3

[8] = test system: HCT116 cells; assay: DNA replication rate (BrdU incorporation ELISA); details: HCT116, 24 hours treatment then 24 hours in normal growth medium
Description: (§4) HeLa and HCT116 cells were plated in black 96-well plates. After cells were allowed to recover for 24 hours NVX-412 or CPT was added in fresh growth medium. After 24 hours of incubation a chemiluminescent BrdU Incorporation ELISA (Roche Applied Science, Penzberg, Germany) was performed with half of the plates according to the manufacturer’s protocol. Cells in the remaining plates were allowed to recover for 24 hours in normal growth medium before DNA replication was measured (wash-out experiment). To check whether a possible decline in DNA replication rate is not simply due to lower cell numbers because of cell death induction, the proportion of viable cells was determined in parallel by a MTT-based cytotoxicity assay according to the manufacturer’s protocol (EZ4U, Biomedica, Vienna, Austria). Colorimetric (at 492 and 620 nm) and chemiluminescent measurements were performed using a FLUOstar OPTIMA (BMG Labtech, Ortenberg, Germany).

[9] = test system: HeLa cells; assay: DNA replication rate (BrdU incorporation ELISA); details: 24 hours treatment then 24 hours in normal growth medium
Description: as §4

[10] = test system: γH2AX (Ser139); assay: Immunofluorescence staining and quantification of γH2AX in HeLa cells
Description: as §2
The common procedure for assessing γH2AX induction is to count γH2AX foci. Since with NVX-412 and the positive control CPT γH2AX activation was that strong, no distinguishable and countable foci were seen. Therefore, the average γH2AX fluorescence intensity per nucleus was determined. To this end, γH2AX intensities within a certain field were measured using Quantity One –4.6.9 (Basic freeware version, Bio-Rad Laboratories, Hercules, CA, USA) and were divided by the number of nuclei in this field.

Row | Structure (SMILES) | p53 status dependency of sensitivity [1] | p53 status dependency of sensitivity [2] | p-p53 (Ser15) immunofluorescence staining [3] | Phosphorylated p53 (Western Blot) [4] | Cell cycle distribution ([5]; 50 nM) | Cell cycle distribution ([5]; 1 µM) | Cell cycle distribution ([6]; 50 nM) | Cell cycle distribution ([6]; 1 µM) | Cell cycle distribution ([7]; 50 nM) | Cell cycle distribution ([7]; 1 µM) | DNA replication rate after recovery (wash-out) [8] | DNA replication rate after recovery (wash-out) [9] | γH2AX induction ([10]; 3 hours) | γH2AX levels after recovery (wash-out) ([10]; 24 hours treatment then 24 hours without drug)
1 | COc1ccc(C2=N[C@@H](c3ccc(Cl)cc3)[C@@H](c3ccc(Cl)cc3)N2C(=O)N2CCNC(=O)C2)c(OC(C)C)c1 [Nutlin-3, reference compound] | p53+/+ cells being much more sensitive than p53−/− cells | p53+/+ cells being much more sensitive than p53−/− cells | – | – | – | – | – | – | – | – | – | – | – | –
2 | CC[C@@]1(O)C(=O)OCc2c1cc1n(c2=O)Cc2cc3ccccc3nc2-1 [CPT, (S)-(+)-Camptothecin, reference compound] | – | – | positive for nuclear staining of p-p53 (Ser15) | strong induction | G2/M-phase arrest | most of the cells were already dead | G2/M arrest | S-phase arrest | G2/M arrest | S-phase arrest | a recovery was only observed at the lowest concentration tested | a recovery was only observed at the lowest concentration tested | Only a slight induction of γH2AX | not reversible
